Here are results for 1 molecule from article PMC13234881, “Synthesis and Cytotoxicity of Complex Betulinic Acid Amides” (ACS Omega, 2026).

One test relates to breast carcinoma MCF7. Nature of the test: Cytotoxicity screening test, MCF7. The format is cell-based. Conditions: Homo sapiens; MCF7 breast adenocarcinoma, 72 h; read-out: Cytotoxicity IC50 ± SD, MCF7. An excerpt: (§1) The screening cell lines, T-lymphoblastic leukemia CCRF-CEM, breast carcinoma MCF7, cervical carcinoma HeLa, and human foreskin fibroblasts BJ, were obtained from the American Type Culture Collection (Manassas, VA, USA). The procedure for cell culturing has already been described. ,

Another test concerns cervical carcinoma HeLa. The experiment in a line: Cytotoxicity screening test, HeLa. The format is cell-based. The conditions noted are these: Homo sapiens; HeLa cervical cancer, 72 h; read-out: Cytotoxicity IC50 ± SD, HeLa.
Excerpt: as §1

In general, IC50 refers to the point on the concentration scale where inhibition reaches its midpoint. Regarding `COc1cccc2c1C(=O)c1c(O)c3c(c(O)c1C2=O)C[C@@](O)(C(=O)CO)C[C@@H]3O[C@H]1C[C@H](N)[C@H](O)[C@H](C)O1` [doxorubicin], the IC50 with breast carcinoma MCF7 was 273 ± 19 nM; with cervical carcinoma HeLa it was 868 ± 54 nM.
